# Measurements as given in ChEMBL document CHEMBL5291721, “A preclinical secondary pharmacology resource illuminates target-adverse drug reaction associations of marketed drugs” (Nat Commun, 2023).
# Columns and labels:
# [1] = target: T1, 5-hydroxytryptamine receptor 2B (Homo sapiens, UniProt P41595); type: functional, cell-based
# [2] = target: Vascular endothelial growth factor receptor 2 (Homo sapiens, UniProt P35968); type: functional
# [3] = target: T2, Glucocorticoid receptor (Homo sapiens, UniProt P04150)
# T2 sequence (P04150 whole entry): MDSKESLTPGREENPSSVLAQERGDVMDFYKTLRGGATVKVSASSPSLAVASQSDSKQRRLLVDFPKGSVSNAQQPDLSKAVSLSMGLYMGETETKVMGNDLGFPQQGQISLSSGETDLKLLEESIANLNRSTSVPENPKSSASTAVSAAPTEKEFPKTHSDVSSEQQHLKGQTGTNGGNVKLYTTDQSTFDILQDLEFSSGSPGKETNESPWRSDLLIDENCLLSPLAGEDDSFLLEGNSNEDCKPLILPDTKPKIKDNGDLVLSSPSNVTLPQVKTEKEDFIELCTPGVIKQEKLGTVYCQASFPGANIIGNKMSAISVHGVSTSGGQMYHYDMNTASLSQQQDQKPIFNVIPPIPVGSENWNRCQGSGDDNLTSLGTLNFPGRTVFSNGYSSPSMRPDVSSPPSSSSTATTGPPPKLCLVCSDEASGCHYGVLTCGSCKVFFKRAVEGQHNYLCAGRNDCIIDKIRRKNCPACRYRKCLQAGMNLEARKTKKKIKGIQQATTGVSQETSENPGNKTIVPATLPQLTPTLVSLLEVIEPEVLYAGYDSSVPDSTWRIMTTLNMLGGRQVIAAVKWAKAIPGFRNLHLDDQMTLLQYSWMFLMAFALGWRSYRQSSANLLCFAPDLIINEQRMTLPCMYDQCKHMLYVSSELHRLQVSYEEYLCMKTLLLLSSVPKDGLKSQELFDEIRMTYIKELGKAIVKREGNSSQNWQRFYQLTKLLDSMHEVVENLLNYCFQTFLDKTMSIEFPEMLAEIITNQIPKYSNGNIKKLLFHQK
# [4] = target: T1, 5-hydroxytryptamine receptor 2B; type: functional, cell-based; remark: listed apart in the source
# [5] = target: T3, Alpha-1A adrenergic receptor (Homo sapiens, UniProt P35348)
# T3 sequence (P35348 whole entry): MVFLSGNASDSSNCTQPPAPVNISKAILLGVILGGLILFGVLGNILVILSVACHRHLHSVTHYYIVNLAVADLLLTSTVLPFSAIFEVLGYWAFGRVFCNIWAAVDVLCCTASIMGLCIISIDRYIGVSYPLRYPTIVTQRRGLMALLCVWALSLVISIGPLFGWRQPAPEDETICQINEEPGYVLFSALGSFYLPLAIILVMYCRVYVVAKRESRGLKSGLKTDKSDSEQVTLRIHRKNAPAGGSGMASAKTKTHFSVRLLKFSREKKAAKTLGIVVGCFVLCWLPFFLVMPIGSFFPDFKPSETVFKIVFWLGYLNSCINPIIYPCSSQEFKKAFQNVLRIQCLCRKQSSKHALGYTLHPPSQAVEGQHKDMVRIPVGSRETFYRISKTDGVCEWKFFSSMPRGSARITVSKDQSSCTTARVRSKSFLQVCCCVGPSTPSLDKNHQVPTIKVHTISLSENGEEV
# [6] = target: Beta-2 adrenergic receptor (Homo sapiens, UniProt P07550)
# [7] = target: Cannabinoid receptor 1 (Homo sapiens, UniProt P21554)
# [8] = target: T4, Gastrin/cholecystokinin type B receptor (Homo sapiens, UniProt P32239)
# T4 sequence (P32239 whole entry): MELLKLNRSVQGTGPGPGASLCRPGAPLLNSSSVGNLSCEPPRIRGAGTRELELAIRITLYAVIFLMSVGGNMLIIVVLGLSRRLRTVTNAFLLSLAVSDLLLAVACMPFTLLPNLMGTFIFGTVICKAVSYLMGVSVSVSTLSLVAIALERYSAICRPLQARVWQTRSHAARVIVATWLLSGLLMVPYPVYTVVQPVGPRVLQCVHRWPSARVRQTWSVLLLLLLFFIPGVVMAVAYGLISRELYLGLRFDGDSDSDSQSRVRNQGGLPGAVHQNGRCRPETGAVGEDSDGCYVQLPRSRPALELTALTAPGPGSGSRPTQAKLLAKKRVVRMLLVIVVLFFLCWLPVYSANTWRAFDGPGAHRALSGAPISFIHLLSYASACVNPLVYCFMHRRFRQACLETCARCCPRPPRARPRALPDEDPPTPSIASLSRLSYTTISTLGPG
# [9] = target: T5, 5-hydroxytryptamine receptor 1A (Homo sapiens, UniProt P08908); type: functional, cell-based
# T5 sequence (P08908 whole entry): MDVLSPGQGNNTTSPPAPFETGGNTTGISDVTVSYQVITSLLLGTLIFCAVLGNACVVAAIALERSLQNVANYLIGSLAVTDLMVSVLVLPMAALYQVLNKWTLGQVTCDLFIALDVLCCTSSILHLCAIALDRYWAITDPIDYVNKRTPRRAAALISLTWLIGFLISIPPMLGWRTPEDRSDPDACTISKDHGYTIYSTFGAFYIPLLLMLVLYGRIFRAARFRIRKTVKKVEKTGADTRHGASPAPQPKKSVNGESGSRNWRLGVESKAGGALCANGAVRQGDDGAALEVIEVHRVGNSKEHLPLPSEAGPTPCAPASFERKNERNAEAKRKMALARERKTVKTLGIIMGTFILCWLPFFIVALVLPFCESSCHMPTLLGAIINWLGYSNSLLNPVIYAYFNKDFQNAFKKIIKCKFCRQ
# Note: assay procedure not described here.
# Vascular endothelial growth factor receptor 2, sequence (P35968 whole entry): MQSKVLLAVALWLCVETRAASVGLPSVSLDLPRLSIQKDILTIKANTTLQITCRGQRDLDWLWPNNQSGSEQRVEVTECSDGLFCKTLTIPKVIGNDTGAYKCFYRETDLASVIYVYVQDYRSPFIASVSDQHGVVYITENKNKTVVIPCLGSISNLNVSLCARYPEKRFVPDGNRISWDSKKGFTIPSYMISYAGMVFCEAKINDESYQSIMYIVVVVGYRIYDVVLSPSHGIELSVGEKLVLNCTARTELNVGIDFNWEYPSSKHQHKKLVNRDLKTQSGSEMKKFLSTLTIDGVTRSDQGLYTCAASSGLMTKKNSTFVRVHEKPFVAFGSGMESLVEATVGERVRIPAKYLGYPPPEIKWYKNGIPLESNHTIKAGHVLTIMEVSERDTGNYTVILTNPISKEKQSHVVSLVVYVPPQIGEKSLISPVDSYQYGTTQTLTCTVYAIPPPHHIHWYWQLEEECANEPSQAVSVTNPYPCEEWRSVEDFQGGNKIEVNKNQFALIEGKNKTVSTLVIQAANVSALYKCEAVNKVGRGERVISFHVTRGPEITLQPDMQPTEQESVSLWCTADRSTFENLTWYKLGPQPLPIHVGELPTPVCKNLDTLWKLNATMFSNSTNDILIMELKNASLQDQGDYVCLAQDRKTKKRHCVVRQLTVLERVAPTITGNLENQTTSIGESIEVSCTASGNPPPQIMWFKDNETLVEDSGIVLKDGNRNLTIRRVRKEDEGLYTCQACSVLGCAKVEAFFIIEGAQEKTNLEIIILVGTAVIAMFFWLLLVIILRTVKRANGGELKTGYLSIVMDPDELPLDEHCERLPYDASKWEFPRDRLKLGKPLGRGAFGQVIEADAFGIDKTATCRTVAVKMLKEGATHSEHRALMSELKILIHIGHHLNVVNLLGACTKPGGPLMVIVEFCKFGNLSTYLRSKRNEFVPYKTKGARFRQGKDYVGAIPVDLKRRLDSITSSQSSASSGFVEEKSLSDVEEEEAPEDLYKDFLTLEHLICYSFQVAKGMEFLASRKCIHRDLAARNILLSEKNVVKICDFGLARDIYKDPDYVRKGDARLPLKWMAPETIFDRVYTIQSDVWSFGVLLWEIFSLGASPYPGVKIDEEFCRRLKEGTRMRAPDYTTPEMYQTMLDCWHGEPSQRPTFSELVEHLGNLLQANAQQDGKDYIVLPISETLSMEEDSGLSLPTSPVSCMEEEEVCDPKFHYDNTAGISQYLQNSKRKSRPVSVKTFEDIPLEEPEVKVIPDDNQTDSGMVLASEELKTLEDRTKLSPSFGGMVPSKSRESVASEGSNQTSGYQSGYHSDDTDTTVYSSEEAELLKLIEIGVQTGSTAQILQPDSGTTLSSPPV
# Cannabinoid receptor 1, sequence (P21554 whole entry): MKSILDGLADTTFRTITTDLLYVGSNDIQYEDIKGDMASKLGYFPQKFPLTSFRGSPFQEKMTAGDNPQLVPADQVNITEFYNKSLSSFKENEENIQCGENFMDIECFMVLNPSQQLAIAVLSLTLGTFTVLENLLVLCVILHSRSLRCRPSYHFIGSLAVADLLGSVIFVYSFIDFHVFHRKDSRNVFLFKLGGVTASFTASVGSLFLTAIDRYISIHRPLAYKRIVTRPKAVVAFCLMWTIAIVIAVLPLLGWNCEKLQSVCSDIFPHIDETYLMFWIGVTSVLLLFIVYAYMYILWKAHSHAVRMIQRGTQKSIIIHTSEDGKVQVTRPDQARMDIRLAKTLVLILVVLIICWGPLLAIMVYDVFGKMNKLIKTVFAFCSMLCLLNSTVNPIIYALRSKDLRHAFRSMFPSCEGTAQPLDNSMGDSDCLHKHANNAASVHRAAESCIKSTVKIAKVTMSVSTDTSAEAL
# Beta-2 adrenergic receptor, sequence (P07550 whole entry): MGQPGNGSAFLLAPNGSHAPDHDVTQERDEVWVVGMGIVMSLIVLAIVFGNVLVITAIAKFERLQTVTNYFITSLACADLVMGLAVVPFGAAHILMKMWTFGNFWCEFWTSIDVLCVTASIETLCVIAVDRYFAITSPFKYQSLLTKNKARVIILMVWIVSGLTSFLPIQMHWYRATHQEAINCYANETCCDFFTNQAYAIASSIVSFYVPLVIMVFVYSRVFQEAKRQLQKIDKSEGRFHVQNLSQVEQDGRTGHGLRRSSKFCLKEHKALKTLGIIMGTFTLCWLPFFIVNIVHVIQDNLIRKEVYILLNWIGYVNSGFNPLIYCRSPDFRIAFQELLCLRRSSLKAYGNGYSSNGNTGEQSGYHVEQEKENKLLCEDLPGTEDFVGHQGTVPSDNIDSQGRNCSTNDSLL
# T1 sequence (P41595 whole entry): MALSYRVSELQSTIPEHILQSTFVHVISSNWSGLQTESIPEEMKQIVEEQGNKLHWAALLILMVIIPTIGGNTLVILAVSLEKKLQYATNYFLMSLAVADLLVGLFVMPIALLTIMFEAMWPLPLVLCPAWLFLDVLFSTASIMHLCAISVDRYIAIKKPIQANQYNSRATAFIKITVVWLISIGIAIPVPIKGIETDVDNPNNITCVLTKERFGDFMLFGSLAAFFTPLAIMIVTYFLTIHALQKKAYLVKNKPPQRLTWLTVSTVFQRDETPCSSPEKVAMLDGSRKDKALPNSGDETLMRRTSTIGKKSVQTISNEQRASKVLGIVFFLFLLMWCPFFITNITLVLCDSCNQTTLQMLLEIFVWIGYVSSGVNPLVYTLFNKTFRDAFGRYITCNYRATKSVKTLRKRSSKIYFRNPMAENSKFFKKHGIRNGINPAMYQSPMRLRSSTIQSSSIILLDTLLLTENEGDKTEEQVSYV
Compound,AC50 [1] [µM],AC50 [2] [µM],other results
c1ccc2c(c1)CCc1ccccc1N2C1CN2CCC1CC2 (centres undefined) [QUINUPRAMINE],> 30,> 30,
CNC1=Nc2ccc(Cl)cc2C(c2ccccc2)=[N+]([O-])C1 [CHLORDIAZEPOXIDE],,,AC50 [3]: > 30 µM; AC50 [4]: > 10 µM; AC50 [5]: > 10 µM; AC50 [6]: > 10 µM; AC50 [7]: > 10 µM; AC50 [8]: > 30 µM
CCC[C@H](NC(=O)[C@@H]1[C@H]2CCC[C@H]2CN1C(=O)[C@@H](NC(=O)[C@@H](NC(=O)c1cnccn1)C1CCCCC1)C(C)(C)C)C(=O)C(=O)NC1CC1,,,AC50 [3]: > 30 µM; AC50 [5]: > 10 µM; AC50 [6]: > 10 µM; AC50 [7]: > 10 µM; AC50 [8]: > 30 µM
CC[C@@H]([C@H](C)O)n1ncn(-c2ccc(N3CCN(c4ccc(OC[C@@H]5CO[C@@](Cn6cncn6)(c6ccc(F)cc6F)C5)cc4)CC3)cc2)c1=O [POSACONAZOLE],> 30,,
C[C@H](Cc1cc2c(c(C(N)=O)c1)N(CCCO)CC2)NCCOc1ccccc1OCC(F)(F)F [SILODOSIN],> 30,> 30,
C=CCSCC1Nc2cc(Cl)c(S(N)(=O)=O)cc2S(=O)(=O)N1 (centres undefined) [ALTHIAZIDE],> 30,> 30,
CN(C)CCOC(c1ccccc1)c1ccc(Br)cc1 (centres undefined) [BROMODIPHENHYDRAMINE],> 30,> 30,
NC(=O)OCC(O)COc1ccc(Cl)cc1 (centres undefined) [CHLORPHENESIN CARBAMATE],> 30,> 30,
Cc1ccccc1N1CCN(CCc2nnc3n2CCCC3)CC1 [DAPIPRAZOLE],> 30,> 30,
CN1CCN(C2=Nc3ccccc3Oc3ccc(Cl)cc32)CC1 [LOXAPINE],,> 30,AC50 [9]: > 10 µM; AC50 [3]: > 30 µM; AC50 [6]: 8.8 µM; AC50 [7]: > 10 µM; AC50 [8]: > 30 µM
CN(C)CCCNc1c2ccccc2nc2cccc([N+](=O)[O-])c12 [NITRACRINE],,,AC50 [3]: > 30 µM; AC50 [4]: 0.76 µM; AC50 [6]: > 30 µM; AC50 [8]: > 30 µM
CC(C)NCC(O)c1ccc(O)c(O)c1 (centres undefined) [ISOPROTERENOL],,,AC50 [9]: > 10 µM; AC50 [3]: > 30 µM; AC50 [4]: > 10 µM; AC50 [7]: > 10 µM; AC50 [8]: > 30 µM
Cc1noc(NS(=O)(=O)c2ccc(N)cc2)c1C [SULFISOXAZOLE],,,AC50 [4]: > 10 µM; AC50 [5]: > 10 µM; AC50 [6]: > 10 µM; AC50 [7]: > 10 µM
CC(=O)O[C@]1(C(C)=O)CC[C@H]2[C@@H]3C=C(Cl)C4=CC(=O)CC[C@]4(C)[C@H]3CC[C@@]21C [CHLORMADINONE ACETATE],> 30,> 30,
Cc1c(N(C)CS(=O)(=O)O)c(=O)n(-c2ccccc2)n1C [METAMIZOLE],> 30,> 30,
CCC(=O)O[C@]1(C(=O)CCl)[C@@H](C)C[C@H]2[C@@H]3C[C@H](F)C4=CC(=O)C=C[C@]4(C)[C@@]3(F)[C@@H](O)C[C@@]21C [HALOBETASOL PROPIONATE],> 30,> 30,
Cc1ncc(COP(=O)(O)O)c(C=O)c1O [PYRIDOXAL PHOSPHATE ANHYDROUS],> 30,> 30,
CC(N)Cc1ccc(O)cc1 (centres undefined) [HYDROXYAMPHETAMINE],> 30,> 30,
CC(C)N(CCNC(=O)CN1CCCC1=O)C(C)C,> 30,> 30,
CC1=CCC(C(C)(C)O)CC1O (centres undefined) [SOBREROL],> 30,> 30,
NCC(CC(=O)O)c1ccccc1 (centres undefined) [PHENIBUT],> 30,> 30,
